In patent US8013156B2 (Exelixis, Inc., priority 2003, dated 2011):

Biological target: Tie-2 (Homo sapiens, UniProt Q02763)
Assay: Tie-2 tyrosine kinase activity assay (luciferase/luciferin ATP consumption with pEY substrate, or 33P-ATP incorporation)
Format: biochemical
Conditions: human enzyme Tie-2
Method in brief: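 Values are IC50 categories (A <50 nM to D ≥10,000 nM), with Ki obtainable by fitting rates to a tight-binding model. Assay formats: 33P-ATP phosphate transfer to adsorbed generic substrate counted by scintillation, or luciferase-detected ATP depletion using pEY.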

Chain of Tie-2 (Q02763 23-1124): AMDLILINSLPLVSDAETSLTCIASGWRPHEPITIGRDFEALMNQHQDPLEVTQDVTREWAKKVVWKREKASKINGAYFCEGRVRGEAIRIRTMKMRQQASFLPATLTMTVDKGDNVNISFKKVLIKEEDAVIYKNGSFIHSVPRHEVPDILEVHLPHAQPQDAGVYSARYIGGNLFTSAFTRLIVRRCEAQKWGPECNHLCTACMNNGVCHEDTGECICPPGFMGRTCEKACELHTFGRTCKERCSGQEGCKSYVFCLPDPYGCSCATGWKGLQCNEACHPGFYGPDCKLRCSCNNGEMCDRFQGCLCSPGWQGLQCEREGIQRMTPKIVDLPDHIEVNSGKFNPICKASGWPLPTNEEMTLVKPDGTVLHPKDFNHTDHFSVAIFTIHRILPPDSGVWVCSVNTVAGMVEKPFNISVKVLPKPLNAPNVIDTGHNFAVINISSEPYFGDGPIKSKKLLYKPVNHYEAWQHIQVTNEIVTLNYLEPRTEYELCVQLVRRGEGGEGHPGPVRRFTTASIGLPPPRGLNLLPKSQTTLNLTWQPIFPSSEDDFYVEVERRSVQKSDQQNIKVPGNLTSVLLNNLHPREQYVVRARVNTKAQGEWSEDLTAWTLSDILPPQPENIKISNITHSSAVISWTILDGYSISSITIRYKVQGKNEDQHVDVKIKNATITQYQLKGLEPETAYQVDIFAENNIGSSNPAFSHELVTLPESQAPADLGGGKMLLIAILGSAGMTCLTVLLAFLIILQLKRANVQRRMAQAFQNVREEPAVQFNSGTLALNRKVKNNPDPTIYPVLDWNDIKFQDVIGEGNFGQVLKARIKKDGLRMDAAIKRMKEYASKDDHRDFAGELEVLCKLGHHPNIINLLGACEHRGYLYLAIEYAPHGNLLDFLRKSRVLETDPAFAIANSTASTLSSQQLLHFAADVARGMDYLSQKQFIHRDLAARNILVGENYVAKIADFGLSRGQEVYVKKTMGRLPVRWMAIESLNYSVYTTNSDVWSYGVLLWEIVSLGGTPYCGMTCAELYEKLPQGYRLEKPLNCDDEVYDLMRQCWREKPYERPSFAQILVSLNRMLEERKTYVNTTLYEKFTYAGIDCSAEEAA

CCc1cccc(NC(=O)N2CCN(c3nc(Cl)ccc3OCc3ccnc(N)n3)CC2)c1 [Example 237, 4-(3-{[(2-aminopyrimidin-4-yl)methyl]oxy}-6-chloropyridin-2-yl)-N-(3-ethylphenyl)piperazine-1-carboxamide] and CCc1ccc(F)c(NC(=O)N2CCN(c3nc(Cl)ccc3OCc3ccnc(N)n3)CC2)c1 [Example 246, 4-(3-{[(2-aminopyrimidin-4-yl)methyl]oxy}-6-chloropyridin-2-yl)-N-(5-ethyl-2-fluorophenyl)piperazine-1-carboxamide] cannot be ordered by IC50: under 50 nM for the first, under 50 nM for the second.

CCc1cc(Br)cc(NC(=O)N2CCN(c3nsnc3OCc3ccnc(N)n3)CC2)c1 [Example 238, 4-(4-{[(2-aminopyrimidin-4-yl)methyl]oxy}-1,2,5-thiadiazol-3-yl)-N-(3-bromo-5-ethylphenyl)piperazine-1-carboxamide] and CCc1cc(CC)cc(NC(=O)N2CCN(c3nsnc3OCc3ccnc(N)n3)CC2)c1 [Example 242, 4-(4-{[(2-aminopyrimidin-4-yl)methyl]oxy}-1,2,5-thiadiazol-3-yl)-N-(3,5-diethylphenyl)piperazine-1-carboxamide] cannot be ordered by IC50: under 50 nM for the first, under 50 nM for the second.

Nc1nccc(COc2nsnc2N2CCN(C(=O)Nc3cc(F)cc(C(F)(F)F)c3)CC2)n1 [Example 239, 4-(4-{[(2-aminopyrimidin-4-yl)methyl]oxy}-1,2,5-thiadiazol-3-yl)-N-[3-fluoro-5-(trifluoromethyl)phenyl]piperazine-1-carboxamide] and Nc1nccc(COc2nsnc2N2CCN(C(=O)Nc3cc(Cl)cc(C(F)(F)F)c3)CC2)n1 [Example 240, 4-(4-{[(2-aminopyrimidin-4-yl)methyl]oxy}-1,2,5-thiadiazol-3-yl)-N-[3-chloro-5-(trifluoromethyl)phenyl]piperazine-1-carboxamide] cannot be ordered by IC50: under 50 nM for the first, under 50 nM for the second.

Compared with CCc1cc(NC(=O)N2CCN(c3nccnc3OCc3ccnc(N)n3)CC2)ccc1F [Example 241, 4-(3-{[(2-aminopyrimidin-4-yl)methyl]oxy}pyrazin-2-yl)-N-(3-ethyl-4-fluorophenyl)piperazine-1-carboxamide], CCc1cc(NC(=O)N2CCN(c3nsnc3OCc3ccnc(N)n3)CC2)ccc1F [Example 252, 4-(4-{[(2-aminopyrimidin-4-yl)methyl]oxy}-1,2,5-thiadiazol-3-yl)-N-(3-ethyl-4-fluorophenyl)piperazine-1-carboxamide] is higher in IC50: under 50 nM for the first, 50 to 1000 nM for the second.

CN1CCN(CC(=O)Nc2cc(COc3cccnc3N3CCN(C(=O)Nc4cc(C(F)(F)F)cc(Cl)c4F)CC3)ccn2)CC1 [Example 243, N-[3-chloro-2-fluoro-5-(trifluoromethyl)phenyl]-4-(3-{[(2-{[(4-methylpiperazin-1-yl)acetyl]amino}pyridin-4-yl)methyl]oxy}pyridin-2-yl)piperazine-1-carboxamide] and Nc1nccc(COc2cccnc2N2CCN(C(=O)Nc3cc(C(F)(F)F)cc(Cl)c3F)CC2)n1 [Example 249, 4-(3-{[(2-aminopyrimidin-4-yl)methyl]oxy}pyridin-2-yl)-N-[3-chloro-2-fluoro-5-(trifluoromethyl)phenyl]piperazine-1-carboxamide] cannot be ordered by IC50: under 50 nM for the first, under 50 nM for the second.

Nc1nccc(COc2ccc(Cl)nc2N2CCN(C(=O)Nc3cc(C(F)(F)F)cc(C(F)(F)F)c3)CC2)n1 [Example 244, 4-(3-{[(2-aminopyrimidin-4-yl)methyl]oxy}-6-chloropyridin-2-yl)-N-[3,5-bis(trifluoromethyl)phenyl]piperazine-1-carboxamide] and Nc1nccc(COc2ccccc2N2CCN(C(=O)Nc3cc(C(F)(F)F)cc(C(F)(F)F)c3)CC2)n1 [Example 255, 4-(2-{[(2-aminopyrimidin-4-yl)methyl]oxy}phenyl)-N-[3,5-bis(trifluoromethyl)phenyl]piperazine-1-carboxamide] cannot be ordered by IC50: under 50 nM for the first, under 50 nM for the second.

CCc1cccc(NC(=O)N2CCN(c3ncccc3OC(C)c3ccnc(N)n3)CC2)c1 (stereo not drawn) [Example 245, 4-(3-{[1-(2-aminopyrimidin-4-yl)ethyl]oxy}pyridin-2-yl)-N-(3-ethylphenyl)piperazine-1-carboxamide] and CCc1cccc(NC(=O)N2CCN(c3ccccc3OCc3ccnc(N)n3)CC2)c1 [Example 256, 4-(2-{[(2-aminopyrimidin-4-yl)methyl]oxy}phenyl)-N-(3-ethylphenyl)piperazine-1-carboxamide] cannot be ordered by IC50: under 50 nM for the first, under 50 nM for the second.

CCc1cc(F)cc(NC(=O)N2CCN(c3ncccc3OCc3ccnc(N)n3)CC2)c1 [Example 247, 4-(3-{[(2-aminopyrimidin-4-yl)methyl]oxy}pyridin-2-yl)-N-(3-ethyl-5-fluorophenyl)piperazine-1-carboxamide] and CCc1cc(NC(=O)N2CCN(c3nsnc3OCc3ccnc(N)n3)CC2)cc(C(F)(F)F)c1 [Example 260, 4-(4-{[(2-aminopyrimidin-4-yl)methyl]oxy}-1,2,5-thiadiazol-3-yl)-N-[3-ethyl-5-(trifluoromethyl)phenyl]piperazine-1-carboxamide] cannot be ordered by IC50: under 50 nM for the first, under 50 nM for the second.

First: Nc1nccc(COc2nsnc2N2CCN(C(=O)Nc3cc(C(F)(F)F)cc(Cl)c3F)CC2)n1 [Example 248, 4-(4-{[(2-aminopyrimidin-4-yl)methyl]oxy}-1,2,5-thiadiazol-3-yl)-N-[3-chloro-2-fluoro-5-(trifluoromethyl)phenyl]piperazine-1-carboxamide]
Second: Nc1nccc(COc2nsnc2N2CCN(C(=O)Nc3cc(C(F)(F)F)ccc3Cl)CC2)n1 [Example 262, 4-(4-{[(2-aminopyrimidin-4-yl)methyl]oxy}-1,2,5-thiadiazol-3-yl)-N-[2-chloro-5-(trifluoromethyl)phenyl]piperazine-1-carboxamide]
The IC50 of the first is lower: under 50 nM for the first, 50 to 1000 nM for the second. The first is the more potent here.

CN(C(=O)N1CCN(c2ncccc2OCc2ccnc(N)n2)CC1)c1cc(C(F)(F)F)cc(C(F)(F)F)c1 [Example 250, 4-(3-{[(2-aminopyrimidin-4-yl)methyl]oxy}pyridin-2-yl)-N-[3,5-bis(trifluoromethyl)phenyl]-N-methylpiperazine-1-carboxamide] and Nc1nccc(COc2ccccc2N2CCN(C(=O)Nc3cc(C(F)(F)F)ccc3F)CC2)n1 [Example 268, 4-(2-{[(2-aminopyrimidin-4-yl)methyl]oxy}phenyl)-N-[2-fluoro-5-(trifluoromethyl)phenyl]piperazine-1-carboxamide] cannot be ordered by IC50: under 50 nM for the first, under 50 nM for the second.

CC(C)c1cccc(NC(=O)N2CCN(c3nccnc3OCc3ccnc(N)n3)CC2)c1 [Example 251, 4-(3-{[(2-aminopyrimidin-4-yl)methyl]oxy}pyrazin-2-yl)-N-[3-(1-methylethyl)phenyl]piperazine-1-carboxamide] and CC(C)c1cccc(NC(=O)N2CCN(c3nsnc3OCc3ccnc(N)n3)CC2)c1 [Example 261, 4-(4-{[(2-aminopyrimidin-4-yl)methyl]oxy}-1,2,5-thiadiazol-3-yl)-N-[3-(1-methylethyl)phenyl]piperazine-1-carboxamide] cannot be ordered by IC50: under 50 nM for the first, under 50 nM for the second.

Nc1nccc(COc2nsnc2N2CCN(C(=O)Nc3ccc(F)c(Cl)c3)CC2)n1 [Example 253, 4-(4-{[(2-aminopyrimidin-4-yl)methyl]oxy}-1,2,5-thiadiazol-3-yl)-N-(3-chloro-4-fluorophenyl)piperazine-1-carboxamide] and Nc1nccc(COc2nsnc2N2CCN(C(=O)Nc3ccc(F)c(F)c3)CC2)n1 [Example 265, 4-(4-{[(2-aminopyrimidin-4-yl)methyl]oxy}-1,2,5-thiadiazol-3-yl)-N-(3,4-difluorophenyl)piperazine-1-carboxamide] cannot be ordered by IC50: 1000 to 10000 nM for the first, at least 10000 nM for the second.

Compared with COc1ccc(OC)c(NC(=O)N2CCN(c3nsnc3OCc3ccnc(N)n3)CC2)c1 [Example 254, 4-(4-{[(2-aminopyrimidin-4-yl)methyl]oxy}-1,2,5-thiadiazol-3-yl)-N-[2,5-bis(methyloxy)phenyl]piperazine-1-carboxamide], COc1cccc(NC(=O)N2CCN(c3nsnc3OCc3ccnc(N)n3)CC2)c1 [Example 259, 4-(4-{[(2-aminopyrimidin-4-yl)methyl]oxy}-1,2,5-thiadiazol-3-yl)-N-[3-(methyloxy)phenyl]piperazine-1-carboxamide] is lower in IC50: 1000 to 10000 nM for the first, 50 to 1000 nM for the second. The second is the more potent here.

Nc1nccc(COc2nsnc2N2CCN(C(=O)Nc3cc(Cl)ccc3F)CC2)n1 [Example 257, 4-(4-{[(2-aminopyrimidin-4-yl)methyl]oxy}-1,2,5-thiadiazol-3-yl)-N-(5-chloro-2-fluorophenyl)piperazine-1-carboxamide] and Nc1nccc(COc2nsnc2N2CCN(C(=O)Nc3cccc(F)c3)CC2)n1 [Example 263, 4-(4-{[(2-aminopyrimidin-4-yl)methyl]oxy}-1,2,5-thiadiazol-3-yl)-N-(3-fluorophenyl)piperazine-1-carboxamide] fall in the same range of IC50: 1000 to 10000 nM for the first, 1000 to 10000 nM for the second.

First: Nc1nccc(COc2nsnc2N2CCN(C(=O)Nc3cccc(OC(F)(F)F)c3)CC2)n1 [Example 258, 4-(4-{[(2-aminopyrimidin-4-yl)methyl]oxy}-1,2,5-thiadiazol-3-yl)-N-{3-[(trifluoromethyl)oxy]phenyl}piperazine-1-carboxamide]
Second: CSc1cccc(NC(=O)N2CCN(c3nsnc3OCc3ccnc(N)n3)CC2)c1 [Example 266, 4-(4-{[(2-aminopyrimidin-4-yl)methyl]oxy}-1,2,5-thiadiazol-3-yl)-N-[3-(methylthio)phenyl]piperazine-1-carboxamide]
The IC50 of the first is lower: under 50 nM for the first, 50 to 1000 nM for the second.

CCOc1ccccc1NC(=O)N1CCN(c2nsnc2OCc2ccnc(N)n2)CC1 [Example 264, 4-(4-{[(2-aminopyrimidin-4-yl)methyl]oxy}-1,2,5-thiadiazol-3-yl)-N-[2-(ethyloxy)phenyl]piperazine-1-carboxamide] and CC(=O)c1cccc(NC(=O)N2CCN(c3nsnc3OCc3ccnc(N)n3)CC2)c1 [Example 267, N-(3-acetylphenyl)-4-(4-{[(2-aminopyrimidin-4-yl)methyl]oxy}-1,2,5-thiadiazol-3-yl)piperazine-1-carboxamide] cannot be ordered by IC50: at least 10000 nM for the first, 1000 to 10000 nM for the second.

In the case of Nc1nccc(COc2ccccc2N2CCN(C(=O)Nc3cccc(F)c3)CC2)n1 [Example 269, 4-(2-{[(2-aminopyrimidin-4-yl)methyl]oxy}phenyl)-N-(3-fluorophenyl)piperazine-1-carboxamide], the IC50 is reported as 1000 to 10000 nM.
